Results on 1 compound are retold here after US20180073018A1, “COMPOSITIONS AND METHODS FOR SPECIFIC REACTIVATION OF HIV LATENT RESERVOIR” (priority 2015, published 2018).

This data set deals with TZM-bI cells. The data set can be described thus: CellTiter-Glo luminescent cell viability assay in TZM-bI cells. Format: cell-based. Conditions: TZM-bI, 5,000 nM. As for the experimental part: FIG. 10A, FIG. 10B: TZM-bI cells were infected with indicated lentiviruses for 1 d and triple antibiotic selection with puromycin/hygromycin/zeoin (P/H/Z) was maintained for 4 d before passage, OneGlo luciferase reporter assay (FIG. 10A) and CellTiter-Glo® luminescent cell viability assay (FIG. 10B). FIG. 10C, FIG. 10D: CHME5 cells were infected with indicated lentiviruses and cultured for 5 d in the absence or presence of P/H/Z triple selection. Flow cytometry analysis was performed for reactivation efficiency (FIG. 10C) and total survival cell number (FIG. 10D). FIG. 10E: Caspase-Glo® 3/7 Assay was performed at 2 dpi to evaluate apoptotic cell death. […] FIG. 10F, FIG. 10G: The 2D10 cells were infected for 1 and 4 dpi, and the reactivation efficiency (FIG. 10F) and relative total survival cell number (FIG. 10G) were determined by flow cytometry. *p<0.05 and **p<0.01 indicate statistical significance by ANOVA and FLSD test.
FIG. 12A, FIG. 12B, FIG. 12C: The dCas9-VPH stable TZM-bI cells were treated with SAHA or infected with indicated msgRNAs lentivirus for 2-4 d before luminescence reporter assay (FIG. 12A) and CELLTITER-GLO® luminescent cell viability assay (FIG. 12B). […]
The cell growth/proliferation was determined by the trypan blue exclusion hemocytometry, and CELLTITER-GLO luminescence viability assay (Promega). […]
On the technique in general: In ATP-based viability assays light output follows the ATP content of the culture.

Turning to `O=C(CCCCCCC(=O)Nc1ccccc1)NO` [SAHA, suberoylanilide hydroxamic acid], the cell viability result is listed as “killed all the cells”.
